According to PubChem BioAssay (NCI):
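All cell lines were grown in 96-well plates and treated with compound for 48 hours. GI50: concentration for 50% inhibition of growth. At the TGI there is no net growth.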 Where a SMILES comes first, the peptide text is derived from it. The star is where a group is joined. Trt = c1ccc(C(c2ccccc2)(c2ccccc2)*)cc1; Cbz = O=C(OCc1ccccc1)*

system: NCI-H460 lung; assay: DTP human tumour cell line panel, 48 h

Row | Molecule | GI50 | TGI
1 | COc1ccc(-c2nc(C(=O)c3ccccc3)n(CC(=O)c3ccc(Cl)cc3)c2-c2ccc(OC)cc2)cc1 | > 100 µM | > 100 µM
2 | O=C1CCC(=O)c2sccc2N1 | – | > 100 µM
3 | COC(=O)C(CSC(c1ccccc1)(c1ccccc1)c1ccccc1)NC(=O)C(CC(N)=O)NC(=O)OCc1ccccc1 (stereo not drawn) (Cbz-Asn-Cys(Trt)-OMe; configuration not given here) | 4.5 µM | 15.8 µM
4 | COc1cccc2c1cc1c3c(cc4c(c32)OCO4)C(=O)N1 | 3.68 µM | 20.4 µM
5 | CCCCCCCCCCSC(=N)N | 2.02 µM | 4.68 µM
6 | Cc1cc(Br)cc(C)c1NC(=O)C(=O)Nn1c(=S)[nH]c2ccccc2c1=O | – | > 100 µM
7 | Cn1nc(-c2ccccc2)c(C(=O)/C=C/c2ccc(Cl)cc2)c(N2CCCC2)c1=O | – | 12.9 µM
8 | O=C1C=Cc2ncccc2C1=O | – | 38.2 µM
9 | [CH3][Sn]1([CH3])[O]CC(COc2cc(Cl)c(Cl)cc2Cl)[O]1 (stereo not drawn) | > 100 µM | > 100 µM
10 | O=C(/C=C/c1ccccc1)CCC1C(=O)NC(=S)NC1=O | – | > 100 µM
11 | CCc1cc(Cc2ccc(C)c(NC(=O)C(=O)C3C(=O)NC(=O)NC3=O)c2CC)cc(C)c1NC(=O)C(=O)C1C(=O)NC(=O)NC1=O | – | > 100 µM
12 | CC(=O)OC(=O)O/C=C\CCl | – | > 100 µM
13 | CC(=O)c1c2c(cc3c1CC1(C3)Cc3cc4c(c(C(=O)O)c3C1)CCC4)CCC2 (stereo not drawn) | – | > 100 µM
14 | Cc1ccc(/C=N/NS(=O)(=O)c2ccccc2)c(C)c1 | – | > 100 µM
15 | C#CCOCn1cnc2ncnc(N)c21 | – | > 100 µM
16 | Cc1noc(/N=C2\C=C(Nc3onc(C)c3C)C(=O)c3ccccc32)c1C | – | > 100 µM
17 | CCCN1CCC=C(c2ccc(Nc3nc(Nc4ccccc4C(N)=O)c4cc[nH]c4n3)c(C)c2)C1 | 2.46 µM | > 25 µM

system: OVCAR-8 ovarian; assay: DTP human tumour cell line panel, 48 h

Row | Molecule | TGI | GI50
18 | CC1=C(N2CC2)C(=O)c2ccccc2C1=O | 2.82 µM | –
19 | H-QIYKKYRTWYRKAWKVLGKV-NH2 | > 100 µM | 3.8 µM
20 | O=S1(=O)c2ccccc2N=C(c2ccccc2Cl)CC1c1ccc(F)cc1 (stereo not drawn) | 48.3 µM | –
21 | CC1=CC(=O)NP(=O)(C23CC4CC(CC(C4)C2)C3)N1 (stereo not drawn) | > 100 µM | –
22 | COc1cc(/C=N/NC(=O)c2ccccc2Nc2cccc(C(F)(F)F)c2)cc(OC)c1OC | 11.6 µM | 4.81 µM
23 | O=c1[nH]cc(C(F)(C(F)(F)F)C(F)(F)F)c(=O)[nH]1 | > 100 µM | –
24 | COc1ccc2c(c1)c1c3n2CCNN=C3CCC1 | > 100 µM | –
25 | CC(=O)[C-](C(C)=O)c1ccccc1.CC(=O)[C-](C(C)=O)c1ccccc1.CC(=O)[C-](C(C)=O)c1ccccc1.[Cl-].[Zr+4] | > 100 µM | 57.5 µM
26 | CC(C)N1C(C)[C@@H](c2ccccc2)O[P@]1(=O)CC1=CCCCC1 (stereo partly drawn) | > 100 µM | –
27 | COC(=O)C(=O)C(C(=O)C(=O)Nc1cc(Cl)c(Cl)cc1Cl)c1nc2ccc([N+](=O)[O-])cc2[nH]c1=O (stereo not drawn) | > 100 µM | –
28 | COc1ccc(NC(=O)C2C(=O)N(c3ccc(OC)cc3)C(=O)/C2=N\NC(N)=O)cc1 (stereo not drawn) | 34.6 µM | –
29 | C/C(=N\NS(=O)(=O)c1ccc([N+](=O)[O-])cc1)c1ccc[n+]([O-])n1 | 6.61 µM | –
30 | S=c1c2ccccc2c(=S)n2n1CC=CC2 | > 100 µM | –
31 | CC(C)(C)Sc1nnc(SC(C)(C)C)c2c(=O)[nH]nc(SC(C)(C)C)c12 | 22.1 µM | –
32 | COc1cc2c(cc1OCCCOc1ccc(-c3nc4ccc(N5CCN(C)CC5)cc4[nH]3)cc1)N=C[C@@H]1CCCN1C2=O | < 0.01 µM | < 0.01 µM
33 | CCCCNC1=C(C(=O)OCC)/C(=N/NC(=O)c2ccccc2O)CO1 | > 100 µM | –
34 | N#CC(C(=O)CCCC(=O)Nc1ccc(Cl)cc1Cl)c1ccc(Cl)cc1 (stereo not drawn) | > 100 µM | –
35 | O=CCCCC(Sc1ccccc1)Sc1ccccc1 | 35.8 µM | –
36 | COC(=O)/C(=N\Nc1nnc(C)n1N)C(C#N)c1ccccc1 (stereo not drawn) | > 100 µM | –
37 | CNC(c1ccncc1)C(NC)c1ccncc1 (stereo not drawn) | > 100 µM | –
38 | COc1ccc(C)cc1C1CCC(=O)O1 (stereo not drawn) | > 100 µM | –
39 | Cc1ccc2nc(NC(=O)C(=O)CC(=O)c3cccc4ccccc34)sc2c1 | 56.7 µM | –

Row | Molecule | TGI | GI50
40 | COc1ccc(-c2nc(C(=O)c3ccccc3)n(CC(=O)c3ccc(Cl)cc3)c2-c2ccc(OC)cc2)cc1 | > 100 µM | > 100 µM
41 | O=C1CCC(=O)c2sccc2N1 | > 100 µM | –
42 | COC(=O)C(CSC(c1ccccc1)(c1ccccc1)c1ccccc1)NC(=O)C(CC(N)=O)NC(=O)OCc1ccccc1 (stereo not drawn) (Cbz-Asn-Cys(Trt)-OMe; configuration not given here) | 17 µM | 3.16 µM
43 | COc1cccc2c1cc1c3c(cc4c(c32)OCO4)C(=O)N1 | 6.01 µM | 2.28 µM
44 | CCCCCCCCCCCCCCCCCC(=O)NCC(COP(=O)(O)O)OCC (stereo not drawn) | > 100 µM | –
45 | CCCOC(=O)C1C2CCC(O2)C1C(=O)O (stereo not drawn) | > 100 µM | –
46 | CCCCCCCCCCSC(=N)N | 19.2 µM | 4.17 µM
47 | Cc1cc(Br)cc(C)c1NC(=O)C(=O)Nn1c(=S)[nH]c2ccccc2c1=O | > 100 µM | –
48 | Cn1nc(-c2ccccc2)c(C(=O)/C=C/c2ccc(Cl)cc2)c(N2CCCC2)c1=O | 29.7 µM | –
49 | O=C1C=Cc2ncccc2C1=O | 30.2 µM | –
50 | C/C(CC(=O)Nc1cccc([N+](=O)[O-])c1)=N\NC(=O)CC#N | > 100 µM | –
51 | [CH3][Sn]1([CH3])[O]CC(COc2cc(Cl)c(Cl)cc2Cl)[O]1 (stereo not drawn) | > 100 µM | > 100 µM
52 | O=C(/C=C/c1ccccc1)CCC1C(=O)NC(=S)NC1=O | > 100 µM | –
53 | CCc1cc(Cc2ccc(C)c(NC(=O)C(=O)C3C(=O)NC(=O)NC3=O)c2CC)cc(C)c1NC(=O)C(=O)C1C(=O)NC(=O)NC1=O | > 100 µM | –
54 | CC(=O)OC(=O)O/C=C\CCl | > 100 µM | –
55 | CC(=O)c1c2c(cc3c1CC1(C3)Cc3cc4c(c(C(=O)O)c3C1)CCC4)CCC2 (stereo not drawn) | > 100 µM | –
56 | Cc1ccc(/C=N/NS(=O)(=O)c2ccccc2)c(C)c1 | > 100 µM | –
57 | NNC(=O)C(O)C(O)C(=O)NN (stereo not drawn) | > 100 µM | –
58 | C#CCOCn1cnc2ncnc(N)c21 | > 100 µM | –
59 | Cc1noc(/N=C2\C=C(Nc3onc(C)c3C)C(=O)c3ccccc32)c1C | > 100 µM | –
60 | CCCN1CCC=C(c2ccc(Nc3nc(Nc4ccccc4C(N)=O)c4cc[nH]c4n3)c(C)c2)C1 | > 25 µM | 10.1 µM

system: SR leukemia; assay: DTP human tumour cell line panel, 48 h

Row | Molecule | TGI | GI50
61 | CC1=C(N2CC2)C(=O)c2ccccc2C1=O | 0.279 µM | –
62 | H-QIYKKYRTWYRKAWKVLGKV-NH2 | > 100 µM | 3.58 µM
63 | CC1=CC(=O)NP(=O)(C23CC4CC(CC(C4)C2)C3)N1 (stereo not drawn) | > 100 µM | –
64 | COc1cc(/C=N/NC(=O)c2ccccc2Nc2cccc(C(F)(F)F)c2)cc(OC)c1OC | 4.16 µM | 1.3 µM
65 | COc1ccc2c(c1)c1c3n2CCNN=C3CCC1 | > 100 µM | –
66 | CC(C)N1C(C)[C@@H](c2ccccc2)O[P@]1(=O)CC1=CCCCC1 (stereo partly drawn) | > 100 µM | –
67 | COC(=O)C(=O)C(C(=O)C(=O)Nc1cc(Cl)c(Cl)cc1Cl)c1nc2ccc([N+](=O)[O-])cc2[nH]c1=O (stereo not drawn) | > 100 µM | –
68 | C/C(=N\NS(=O)(=O)c1ccc([N+](=O)[O-])cc1)c1ccc[n+]([O-])n1 | 49 µM | –
69 | CC(C)(C)Sc1nnc(SC(C)(C)C)c2c(=O)[nH]nc(SC(C)(C)C)c12 | 19.1 µM | –
70 | COc1cc2c(cc1OCCCOc1ccc(-c3nc4ccc(N5CCN(C)CC5)cc4[nH]3)cc1)N=C[C@@H]1CCCN1C2=O | < 0.01 µM | < 0.01 µM
71 | N#CC(C(=O)CCCC(=O)Nc1ccc(Cl)cc1Cl)c1ccc(Cl)cc1 (stereo not drawn) | > 100 µM | –
72 | O=CCCCC(Sc1ccccc1)Sc1ccccc1 | 48.3 µM | –
73 | COC(=O)/C(=N\Nc1nnc(C)n1N)C(C#N)c1ccccc1 (stereo not drawn) | > 100 µM | –
74 | CNC(c1ccncc1)C(NC)c1ccncc1 (stereo not drawn) | > 100 µM | –
75 | COc1ccc(C)cc1C1CCC(=O)O1 (stereo not drawn) | > 100 µM | –
76 | CCCCCCCCCCCCCCCCCC(=O)NCC(COP(=O)(O)O)OCC (stereo not drawn) | > 100 µM | –
77 | CCCOC(=O)C1C2CCC(O2)C1C(=O)O (stereo not drawn) | > 100 µM | –
78 | Cc1cc(Br)cc(C)c1NC(=O)C(=O)Nn1c(=S)[nH]c2ccccc2c1=O | > 100 µM | –
79 | CC(=O)OC(=O)O/C=C\CCl | > 100 µM | –
80 | CC(=O)c1c2c(cc3c1CC1(C3)Cc3cc4c(c(C(=O)O)c3C1)CCC4)CCC2 (stereo not drawn) | 80.2 µM | –
81 | Cc1ccc(/C=N/NS(=O)(=O)c2ccccc2)c(C)c1 | > 100 µM | –
82 | NNC(=O)C(O)C(O)C(=O)NN (stereo not drawn) | > 100 µM | –
83 | C#CCOCn1cnc2ncnc(N)c21 | > 100 µM | –
84 | Cc1noc(/N=C2\C=C(Nc3onc(C)c3C)C(=O)c3ccccc32)c1C | > 100 µM | –
